Marks after values point to notes of the source that are not given here.
System: patients with hyposmia
Test: Smell function (DT, RT, ME, H) by forced-choice, three-stimuli, stepwise-staircase technique with four odors; open trial of oral theophylline
Format: in vivo, human
Text: Patients initially reported their sensory dysfunction as either loss of taste (e.g., flavor) and/or smell function. This subjective response was documented by objective psychophysical measurements of olfactory function administered to each patient by use of a forced-choice, three-stimuli, stepwise-staircase technique in a fixed, controlled design (1, 53). Efficacy of this technique and results of testing were previously documented in a double-blind clinical trial (53). Four odors were used; they were pyridine (dead-fish odor), nitrobenzene (bitter-almond odor), thiophene (petroleum-like odor) and amyl acetate (banana-oil odor). Detection thresholds (DT), recognition thresholds (RT) and magnitude estimation (ME) values for each odor were determined as previously described (1, 53). Thresholds were converted into bottle units (BU) as previously described (53) and results reported as M±SEM of correct responses for each odor in each treatment group; ME was reported in % and results calculated to obtain M±SEM for each treatment group for all correct responses using data for the four highest odor concentrations presented (from 10^−2M—an absolute odor concentration).
In addition, each patient graded the hedonic (H) value of each odor presented for these same odor concentrations (from 10^−2M—an absolute odor concentration using a −100−0−+100 scale). […] Results were obtained by calculating the arithmetical sum of each correct recognition response for each odor with respect to its pleasantness, unpleasantness or neutrality. Arithmetic M±SEM were obtained for each treatment group for each odor presented.
After determination of hyposmia, patients were treated in an open label, fixed design, controlled open trial. Patients were given an oral extended release theophylline in divided daily doses taken in the middle of breakfast and lunch. All patients were initially given 200 mg of theophylline; changes in this dose were made based upon subjective responses to therapy. If at a subsequent return visit, patients reported ≥5% subjective improvement in overall smell function, they continued on this same dose of theophylline and were reevaluated after four to six months of continued treatment. Results from any subsequent return from these improved patients were not included in any subsequent data report. All subsequent comparisons between treated and untreated patients were made only between those patients continuing in the study compared to their own measurements obtained in the untreated state. If patients reported <5% subjective improvement, their theophylline dose was increased by 200 mg daily and they were scheduled for retesting at the study site after two to four months at this new dosage. For patients that reported <5% improvement, this sequence continued until patients reached 800 mg of theophylline, at which time the study was considered completed.
Patients returned for reevaluation after two to four months of treatment. Measurements of blood serum theophylline were measured by a fluorescence polarization assay (Abbott, Chicago, Ill.). At this time, subjective changes in smell function were measured independently (compared to patient's memory of previous normal smell function monitored by use of the patients' daily measurements) using the scale from −100−0-+100 previously described. After independently recording their subjective responses, smell function was measured for all four odors with DT, RT, ME and H determined without recourse to prior measurements.
Since data for all measurements from each patient group (local or distant) on each dose level were combined mean and SEM for each measurement (DT, RT, ME, H) of smell function for each treatment group were calculated on this basis. Differences in measurements between before treatment and each treatment level were calculated and significance of differences estimated using Student t tests (values p<0.05 considered significant). […]

[1] = pyridine, oral theophylline 200 mg
[2] = pyridine, oral theophylline 200 mg daily, all patients (199)
[3] = pyridine, oral theophylline 200 mg, Type I hyposmia (57)
[4] = pyridine, oral theophylline 200 mg, Type II hyposmia (138)
[5] = pyridine, oral theophylline 200 mg, Type III hyposmia (4)
[6] = pyridine, oral theophylline 400 mg
[7] = pyridine, oral theophylline 400 mg daily, all patients (120)
[8] = pyridine, oral theophylline 400 mg, Type I hyposmia (33)
[9] = pyridine, oral theophylline 400 mg, Type II hyposmia (85)
[10] = pyridine, oral theophylline 400 mg, Type III hyposmia (2)
[11] = pyridine, oral theophylline 600 mg daily, all patients (160)
[12] = pyridine, oral theophylline 600 mg, Type I hyposmia (51)
[13] = pyridine, oral theophylline 600 mg, Type II hyposmia (105)
[14] = pyridine, oral theophylline 600 mg, Type III hyposmia (4)
[15] = pyridine, oral theophylline 800 mg daily, all patients (28)
[16] = pyridine, oral theophylline 800 mg, Type I hyposmia (12)
[17] = pyridine, oral theophylline 800 mg, Type II hyposmia (16)
[18] = thiophene, oral theophylline 200 mg
[19] = thiophene, oral theophylline 200 mg daily, all patients (199)
[20] = thiophene, oral theophylline 200 mg, Type I hyposmia (57)
[21] = thiophene, oral theophylline 200 mg, Type II hyposmia (138)
[22] = thiophene, oral theophylline 200 mg, Type III hyposmia (4)
[23] = thiophene, oral theophylline 400 mg
[24] = thiophene, oral theophylline 400 mg daily, all patients (120)
[25] = thiophene, oral theophylline 400 mg, Type I hyposmia (33)
[26] = thiophene, oral theophylline 400 mg, Type II hyposmia (85)
[27] = thiophene, oral theophylline 400 mg, Type III hyposmia (2)
[28] = thiophene, oral theophylline 600 mg daily, all patients (160)
[29] = thiophene, oral theophylline 600 mg, Type I hyposmia (51)
[30] = thiophene, oral theophylline 600 mg, Type II hyposmia (105)
[31] = thiophene, oral theophylline 600 mg, Type III hyposmia (4)
[32] = thiophene, oral theophylline 800 mg daily, all patients (28)
[33] = thiophene, oral theophylline 800 mg, Type I hyposmia (12)
[34] = thiophene, oral theophylline 800 mg, Type II hyposmia (16)

## Cn1c(=O)c2[nH]cnc2n(C)c1=O [theophylline]
Oral theophylline 600 mg
  total mean increase of ME for all odors: 6.9%
Oral theophylline 800 mg daily
  decrease of H for pyridine: 55%
  decrease of H for thiophene: 37%
  increase of H for amyl acetate: about 50%
  increase of H for nitrobenzene: about 50%
[1]
  decrease of H values: 2%
  increase of ME values: 6%
[2]
  DT, detection threshold: 7.6 ± 0.2^a BU
  H, hedonic estimation: −22 ± 2^a %
  ME, magnitude estimation: 28 ± 2^a %
  RT, recognition threshold: 9.0 ± 0.2^a BU
[3]
  DT, detection threshold: 9.5 ± 0.2^ BU
  H, hedonic value: −8 ± 2^a %
  ME, magnitude estimation: 11 ± 2^a %
  RT, recognition threshold: 11.0 ± 0.2^a BU
[4]
  DT, detection threshold: 6.9 ± 0.2^ BU
  H, hedonic value: −28 ± 2^ %
  ME, magnitude estimation: 35 ± 2^ %
  RT, recognition threshold: 8.2 ± 0.2^a BU
[5]
  DT, detection threshold: 4.0 ± 0.6 BU
  H, hedonic value: −40 ± 13%
  ME, magnitude estimation: 45 ± 11%
  RT, recognition threshold: 5.2 ± 0.5 BU
[6]
  ME increases: 12%
  increases in H values: 9%
[7]
  DT, detection threshold: 7.0 ± 0.3^c BU
  H, hedonic estimation: −26 ± 3^b %
  ME, magnitude estimation: 33 ± 3^a %
  RT, recognition threshold: 8.5 ± 0.3^a BU
[8]
  DT, detection threshold: 8.8 ± 0.5^ BU
  H, hedonic value: −7 ± 3^a %
  ME, magnitude estimation: 12 ± 3^a %
  RT, recognition threshold: 10.6 ± 0.4^ BU
[9]
  DT, detection threshold: 6.3 ± 0.3^a BU
  H, hedonic value: −34 ± 3^ %
  ME, magnitude estimation: 41 ± 3^a %
  RT, recognition threshold: 7.7 ± 0.3^a BU
[10]
  DT, detection threshold: 5.0 BU
  H, hedonic value: −40%
  ME, magnitude estimation: 45%
  RT, recognition threshold: 5.0 BU
[11]
  DT, detection threshold: 7.4 ± 0.2^c BU
  H, hedonic estimation: −19 ± 2^ %
  ME, magnitude estimation: 26 ± 2^d %
  RT, recognition threshold: 9.4 ± 0.2^c BU
[12]
  DT, detection threshold: 8.9 ± 0.3^b BU
  H, hedonic value: −8 ± 2^a %
  ME, magnitude estimation: 11 ± 3^a %
  RT, recognition threshold: 10.9 ± 0.3^ BU
[13]
  DT, detection threshold: 6.7 ± 0.3^a BU
  H, hedonic value: −25 ± 3^ %
  ME, magnitude estimation: 33 ± 2^ %
  RT, recognition threshold: 8.9 ± 0.3^ BU
[14]
  DT, detection threshold: 3.8 ± 0.9 BU
  H, hedonic value: −26 ± 22%
  ME, magnitude estimation: 41 ± 15%
  RT, recognition threshold: 5.5 ± 0.9 BU
[15]
  DT, detection threshold: 6.9 ± 0.6 BU
  H, hedonic estimation: −22 ± 6%
  ME, magnitude estimation: 29 ± 5%
  RT, recognition threshold: 8.5 ± 0.6^c BU
[16]
  DT, detection threshold: 9.6 ± 0.8^ BU
  H, hedonic value: −11 ± 5^a %
  ME, magnitude estimation: 10 ± 4^a %
  RT, recognition threshold: 10.3 ± 1.0^ BU
[17]
  DT, detection threshold: 4.7 ± 0.7^a BU
  H, hedonic value: −31 ± 9^ %
  ME, magnitude estimation: 43 ± 5^c %
  RT, recognition threshold: 7.1 ± 0.7^a BU
[18]
  decrease of H values: 2%
  increase of ME values: 5%
[19]
  DT, detection threshold: 7.5 ± 0.2^c BU
  H, hedonic estimation: −15 ± 2^d %
  ME, magnitude estimation: 21 ± 2 ^ %
  RT, recognition threshold: 9.1 ± 0.2^c BU
[20]
  DT, detection threshold: 10.1 ± 0.3^d BU
  H, hedonic value: −3 ± 2^a %
  ME, magnitude estimation: 6 ± 2^a %
  RT, recognition threshold: 11.4 ± 0.2^ BU
[21]
  DT, detection threshold: 6.5 ± 0.3^ BU
  H, hedonic value: −19 ± 2^ %
  ME, magnitude estimation: 27 ± 2^ %
  RT, recognition threshold: 8.2 ± 0.3^a BU
[22]
  DT, detection threshold: 3.2 ± 0.8 BU
  H, hedonic value: −40 ± 18%
  ME, magnitude estimation: 47 ± 15%
  RT, recognition threshold: 3.8 ± 0.6 BU
[23]
  ME increases: 12%
  increases in H values: 7%
[24]
  DT, detection threshold: 6.8 ± 0.4^c BU
  H, hedonic estimation: −19 ± 2^d %
  ME, magnitude estimation: 26 ± 2^c %
  RT, recognition threshold: 8.4 ± 0.3^a BU
[25]
  DT, detection threshold: 9.8 ± 0.5^a BU
  H, hedonic value: −5 ± 2^a %
  ME, magnitude estimation: 7 ± 2^a %
  RT, recognition threshold: 10.8 ± 0.4^ BU
[26]
  DT, detection threshold: 5.7 ± 0.4^ BU
  H, hedonic value: −23 ± 3^ %
  ME, magnitude estimation: 31 ± 3^ %
  RT, recognition threshold: 7.6 ± 0.4^a BU
[27]
  DT, detection threshold: 1 BU
  H, hedonic value: −99%
  ME, magnitude estimation: 99%
  RT, recognition threshold: 1 BU
[28]
  DT, detection threshold: 7.1 ± 0.3^a BU
  H, hedonic estimation: −14 ± 2 ^ %
  ME, magnitude estimation: 21 ± 2^d %
  RT, recognition threshold: 9.0 ± 0.3^c BU
[29]
  DT, detection threshold: 9.4 ± 0.4^a BU
  H, hedonic value: −3 ± 2^a %
  ME, magnitude estimation: 7 ± 2^a %
  RT, recognition threshold: 10.9 ± 0.3^d BU
[30]
  DT, detection threshold: 6.1 ± 0.3^a BU
  H, hedonic value: −20 ± 2^ %
  ME, magnitude estimation: 27 ± 2^ %
  RT, recognition threshold: 8.1 ± 0.3^a BU
[31]
  DT, detection threshold: 2.0 ± 1.0 BU
  H, hedonic value: −35 ± 24%
  ME, magnitude estimation: 42 ± 20%
  RT, recognition threshold: 3.8 ± 0.9 BU
[32]
  DT, detection threshold: 7.2 ± 0.7 BU
  H, hedonic estimation: −15 ± 4%
  ME, magnitude estimation: 20 ± 4%
  RT, recognition threshold: 9.6 ± 0.6 BU
[33]
  DT, detection threshold: 10.0 ± 0.7^ BU
  H, hedonic value: −4 ± 2^a %
  ME, magnitude estimation: 4 ± 2^a %
  RT, recognition threshold: 11.6 ± 0.2^ BU
[34]
  DT, detection threshold: 4.9 ± 0.7^a BU
  H, hedonic value: −24 ± 8^ %
  ME, magnitude estimation: 33 ± 6^ %
  RT, recognition threshold: 8.0 ± 1.0^ BU
